According to patent US20250034136A1 (Nimbus Wadjet, Inc., priority 2023, published 2025):

What was measured:
[1] = target: WRN (BV08), human Werner helicase (Uniprot Q14191, amino acids 517-1235 with L1074F point mutation) (Homo sapiens (Human), UniProt Q14191, L1074F); test: WRN (BV08) ADP-Glo assay; type: biochemical; conditions: class symbols A-E, read-out: ADP-Glo_hWRN_IC50
[2] = test system: p21 induction in HCT116 cells; test: p21 induction in HCT116 cells; type: cell-based; conditions: Homo sapiens, HCT-116, 24 h, HCT116 cells, 24 h compound incubation; read-out: P21_EC50
In short: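 HCT116 cells, 2,000/well, treated 24 h at 37 °C with 11-point compound dilutions in duplicate. Fixed, then immunostained for p21 and GAPDH and read by near-IR imaging at 800/700 nm. Normalized to DMSO (low) and reference WRN inhibitor (high) controls; EC50 from non-linear regression.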

Sequence of WRN (BV08), human Werner helicase (Uniprot Q14191, amino acids 517-1235 with L1074F point mutation) (Q14191 other isoform, or with tags, fused parts or gaps L1074F (already in the parent)): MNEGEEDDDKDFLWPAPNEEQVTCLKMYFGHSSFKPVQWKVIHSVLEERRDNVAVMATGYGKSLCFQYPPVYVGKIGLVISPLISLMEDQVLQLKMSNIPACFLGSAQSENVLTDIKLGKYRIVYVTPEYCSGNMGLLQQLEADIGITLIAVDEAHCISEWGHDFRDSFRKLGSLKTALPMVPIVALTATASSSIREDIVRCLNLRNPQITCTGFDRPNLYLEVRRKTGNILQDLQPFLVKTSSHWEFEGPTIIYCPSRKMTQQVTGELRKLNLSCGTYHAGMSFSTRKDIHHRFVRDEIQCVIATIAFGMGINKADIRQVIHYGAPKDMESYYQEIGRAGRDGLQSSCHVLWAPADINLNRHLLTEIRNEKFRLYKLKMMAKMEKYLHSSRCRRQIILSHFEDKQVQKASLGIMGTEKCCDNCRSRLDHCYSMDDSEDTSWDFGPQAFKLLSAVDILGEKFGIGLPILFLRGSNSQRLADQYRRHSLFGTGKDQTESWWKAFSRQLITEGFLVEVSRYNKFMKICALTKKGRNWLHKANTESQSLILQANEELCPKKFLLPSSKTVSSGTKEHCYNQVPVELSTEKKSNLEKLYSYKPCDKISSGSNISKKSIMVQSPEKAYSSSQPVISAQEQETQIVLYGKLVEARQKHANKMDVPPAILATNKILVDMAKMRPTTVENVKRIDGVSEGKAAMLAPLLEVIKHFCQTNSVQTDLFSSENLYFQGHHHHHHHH

Row | Compound | IC50 [1] | EC50 [2]
1 | CCc1c(N2CCN(C(=O)c3c(OC)ncc(C4CCOC4)c3O)[C@H]3CC[C@@H]32)c(=O)c2nc(N(C)C)cnc2n1CC(=O)Nc1ccc(C(F)(F)F)cc1Cl (stereo partly drawn) [I-287, N-[2-chloro-4-(trifluoromethyl)phenyl]-2-[2-(dimethylamino)-6-ethyl-7-[(1S,6S)-5-[4-hydroxy-2-methoxy-5-(oxolan-3-yl)pyridine-3-carbonyl]-2,5-diazabicyclo[4.2.0]octan-2-yl]-8-oxo-5H,8H-pyrido[2,3-b]pyrazin-5-yl]acetamide] | 0.005 to 0.05 µM | < 0.5 µM
2 | CCc1c(N2CCN(C(=O)c3ncnc(C)c3O)[C@H]3CC[C@@H]32)c(=O)c2nc(N(C)C3CCC(O)C3)cnc2n1CC(=O)Nc1ccc(C(F)(F)F)cc1Cl (stereo partly drawn) [I-288, N-[2-chloro-4-(trifluoromethyl)phenyl]-2-{6-ethyl-7-[(1S,6S)-5-(5-hydroxy-6-methylpyrimidine-4-carbonyl)-2,5-diazabicyclo[4.2.0]octan-2-yl]-2-[(3-hydroxycyclopentyl)(methyl)amino]-8-oxo-5H,8H-pyrido[2,3-b]pyrazin-5-yl}acetamide] | 0.005 to 0.05 µM | < 0.5 µM
3 | CCc1c(N2CCN(C(=O)c3ncnc(C)c3O)[C@H]3CC[C@@H]32)c(=O)c2nc(N(C)C)cnc2n1CC(=O)Nc1ccc(OC)cc1Cl [I-289, N-(2-chloro-4-methoxyphenyl)-2-[2-(dimethylamino)-6-ethyl-7-[(1S,6S)-5-(5-hydroxy-6-methylpyrimidine-4-carbonyl)-2,5-diazabicyclo[4.2.0]octan-2-yl]-8-oxo-5H,8H-pyrido[2,3-b]pyrazin-5-yl]acetamide] | 0.005 to 0.05 µM | 0.5 to 2 µM
4 | CCc1c(N2CCN(C(=O)c3ncnc(C)c3O)[C@H]3CC[C@@H]32)c(=O)c2nc(N3CCC4(COC4)C3)cnc2n1CC(=O)Nc1ccc(C(F)(F)F)cc1Cl [I-290, N-[2-chloro-4-(trifluoromethyl)phenyl]-2-{6-ethyl-7-[(1S,6S)-5-(5-hydroxy-6-methylpyrimidine-4-carbonyl)-2,5-diazabicyclo[4.2.0]octan-2-yl]-2-{2-oxa-6-azaspiro[3.4]octan-6-yl}-8-oxo-5H,8H-pyrido[2,3-b]pyrazin-5-yl}acetamide] | 0.005 to 0.05 µM | < 0.5 µM
5 | CCc1c(N2CCN(C(=O)c3c(OC)ncc(COC)c3O)[C@H]3CC[C@@H]32)c(=O)c2nc(N(C)C)cnc2n1CC(=O)Nc1ccc(C(F)(F)F)cc1Cl [I-292, N-[2-chloro-4-(trifluoromethyl)phenyl]-2-[2-(dimethylamino)-6-ethyl-7-[(1S,6S)-5-[4-hydroxy-2-methoxy-5-(methoxymethyl)pyridine-3-carbonyl]-2,5-diazabicyclo[4.2.0]octan-2-yl]-8-oxo-5H,8H-pyrido[2,3-b]pyrazin-5-yl]acetamide] | 0.005 to 0.05 µM | > 5 µM
6 | CCc1c(N2CCN(C(=O)c3ncnc(C)c3O)[C@H]3CC[C@@H]32)c(=O)c2nc(N(C)C3CCC3O)cnc2n1CC(=O)Nc1ccc(C(F)(F)F)cc1Cl (stereo partly drawn) [I-293, N-[2-chloro-4-(trifluoromethyl)phenyl]-2-{6-ethyl-7-[(1S,6S)-5-(5-hydroxy-6-methylpyrimidine-4-carbonyl)-2,5-diazabicyclo[4.2.0]octan-2-yl]-2-[(2-hydroxycyclobutyl)(methyl)amino]-8-oxo-5H,8H-pyrido[2,3-b]pyrazin-5-yl}acetamide] | 0.005 to 0.05 µM | < 0.5 µM
7 | CCc1c(N2CCN(C(=O)c3ncnc(C)c3O)[C@H]3CC[C@@H]32)c(=O)c2nc(N(C)[C@H]3CC[C@H](O)C3)cnc2n1CC(=O)Nc1ccc(C(F)(F)F)cc1Cl [I-299, N-[2-chloro-4-(trifluoromethyl)phenyl]-2-{6-ethyl-7-[(1S,6S)-5-(5-hydroxy-6-methylpyrimidine-4-carbonyl)-2,5-diazabicyclo[4.2.0]octan-2-yl]-2-{[(1S,3S)-3-hydroxycyclopentyl](methyl)amino}-8-oxo-5H,8H-pyrido[2,3-b]pyrazin-5-yl}acetamide] | 0.005 to 0.05 µM | < 0.5 µM
8 | CCc1c(N2CCN(C(=O)c3ncnc(C)c3O)[C@H]3CC[C@@H]32)c(=O)c2nc(N(C)[C@@H]3CC[C@H](O)C3)cnc2n1CC(=O)Nc1ccc(C(F)(F)F)cc1Cl [I-300, N-[2-chloro-4-(trifluoromethyl)phenyl]-2-{6-ethyl-7-[(1S,6S)-5-(5-hydroxy-6-methylpyrimidine-4-carbonyl)-2,5-diazabicyclo[4.2.0]octan-2-yl]-2-{[(1R,3S)-3-hydroxycyclopentyl](methyl)amino}-8-oxo-5H,8H-pyrido[2,3-b]pyrazin-5-yl}acetamide] | 0.005 to 0.05 µM | < 0.5 µM
9 | CCc1c(N2CCN(C(=O)c3ncnc(C)c3O)[C@H]3CC[C@@H]32)c(=O)c2nc(N(C)[C@@H]3CC[C@@H](O)C3)cnc2n1CC(=O)Nc1ccc(C(F)(F)F)cc1Cl [I-301, N-[2-chloro-4-(trifluoromethyl)phenyl]-2-{6-ethyl-7-[(1S,6S)-5-(5-hydroxy-6-methylpyrimidine-4-carbonyl)-2,5-diazabicyclo[4.2.0]octan-2-yl]-2-{[(1R,3R)-3-hydroxycyclopentyl](methyl)amino}-8-oxo-5H,8H-pyrido[2,3-b]pyrazin-5-yl}acetamide] | 0.005 to 0.05 µM | < 0.5 µM
10 | CCc1c(N2CCN(C(=O)c3ncnc(C)c3O)[C@H]3CC[C@@H]32)c(=O)c2nc(N(C)[C@H]3CC[C@@H](O)C3)cnc2n1CC(=O)Nc1ccc(C(F)(F)F)cc1Cl [I-302, N-[2-chloro-4-(trifluoromethyl)phenyl]-2-{6-ethyl-7-[(1S,6S)-5-(5-hydroxy-6-methylpyrimidine-4-carbonyl)-2,5-diazabicyclo[4.2.0]octan-2-yl]-2-{[(1S,3R)-3-hydroxycyclopentyl](methyl)amino}-8-oxo-5H,8H-pyrido[2,3-b]pyrazin-5-yl}acetamide] | 0.005 to 0.05 µM | < 0.5 µM
